From patent US20240277852A1, “INHIBITORS AND DEGRADERS OF PIP4K PROTEIN” (DANA-FARBER CANCER INSTITUTE, INC., priority 2021, published 2024)

Legend:
[1] = target: PIP4K2C (Homo sapiens (Human), UniProt Q8TBX8); assay: KINOMEscan PIP5K2C (also known as PIP4K2C) Assay (Eurofins Discovery); assay type: binding
Procedure: (§1) The inhibitory activity of the compounds were evaluated using KINOMEscan® PIP5K2B (also known as PIP4K2B) and KINOMEscan® PIP5K2C (also known as PIP4k2C) Assays (Eurofins Discovery) following the manufacturer's standards.

[2] = target: PIP4K2B (Homo sapiens (Human), UniProt P78356); assay: KINOMEscan PIP5K2B (also known as PIP4K2B) Assay (Eurofins Discovery); assay type: binding
Procedure: as §1

[3] = target: PIP4K2A (Homo sapiens (Human), UniProt P48426); assay: PIP4K2A inhibitory activity (Table 1); assay type: biochemical
Sequence of PIP4K2A (P48426 whole entry, species assumed): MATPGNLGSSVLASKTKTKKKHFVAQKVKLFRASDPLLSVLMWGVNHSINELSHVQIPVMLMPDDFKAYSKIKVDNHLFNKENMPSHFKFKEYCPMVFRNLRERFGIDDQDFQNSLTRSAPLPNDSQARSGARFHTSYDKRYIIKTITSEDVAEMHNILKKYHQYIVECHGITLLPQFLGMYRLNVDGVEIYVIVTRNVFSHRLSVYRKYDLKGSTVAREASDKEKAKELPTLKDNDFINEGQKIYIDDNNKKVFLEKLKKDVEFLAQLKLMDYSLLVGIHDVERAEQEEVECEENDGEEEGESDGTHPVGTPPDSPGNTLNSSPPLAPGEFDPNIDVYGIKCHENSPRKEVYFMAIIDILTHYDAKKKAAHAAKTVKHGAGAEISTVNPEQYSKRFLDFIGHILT

Sequence of PIP4K2C (Q8TBX8 whole entry): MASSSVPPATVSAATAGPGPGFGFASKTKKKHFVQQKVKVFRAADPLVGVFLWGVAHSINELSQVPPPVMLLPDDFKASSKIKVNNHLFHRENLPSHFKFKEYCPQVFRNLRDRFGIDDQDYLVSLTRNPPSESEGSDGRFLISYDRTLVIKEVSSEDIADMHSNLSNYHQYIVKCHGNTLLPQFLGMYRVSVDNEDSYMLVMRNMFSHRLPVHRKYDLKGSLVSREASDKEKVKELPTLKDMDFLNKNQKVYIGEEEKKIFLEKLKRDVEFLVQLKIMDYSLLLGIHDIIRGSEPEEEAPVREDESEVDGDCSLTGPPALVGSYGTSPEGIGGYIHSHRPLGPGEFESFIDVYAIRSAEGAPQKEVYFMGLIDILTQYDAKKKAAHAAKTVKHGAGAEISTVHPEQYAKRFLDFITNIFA
Sequence of PIP4K2B (P78356 whole entry): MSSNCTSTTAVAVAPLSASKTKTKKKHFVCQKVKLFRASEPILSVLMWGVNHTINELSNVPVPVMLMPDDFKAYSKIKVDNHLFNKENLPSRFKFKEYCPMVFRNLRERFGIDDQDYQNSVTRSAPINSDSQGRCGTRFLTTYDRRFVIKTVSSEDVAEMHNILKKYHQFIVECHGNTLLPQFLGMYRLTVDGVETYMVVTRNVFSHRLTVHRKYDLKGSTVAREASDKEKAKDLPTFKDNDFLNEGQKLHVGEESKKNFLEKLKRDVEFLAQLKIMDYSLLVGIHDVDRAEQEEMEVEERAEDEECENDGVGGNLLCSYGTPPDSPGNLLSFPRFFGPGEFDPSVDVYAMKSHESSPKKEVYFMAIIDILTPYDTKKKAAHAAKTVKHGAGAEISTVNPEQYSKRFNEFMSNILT

Compound	Kd [1]	Kd [2]	IC50 [3]
CC(=O)Nc1ccc(Nc2ncc(Cl)c(-c3cccc(-c4ccccc4)c3)n2)c(C)c1 [Compound 8, N-(4-((4-([1,1′-biphenyl]-3-yl)-5-chloropyrimidin-2-yl)amino)-3-methylphenyl)acetamide]	270 nM		
O=C1CC[C@H]2COc3ncc(Nc4ncc(Cl)c(-c5cccc(-c6ccccc6)c5)n4)cc3N12 [Compound 15, (S)-2-((4-([1,1′-biphenyl]-3-yl)-5-chloropyrimidin-2-yl)amino)-6,6a,7,8-tetrahydro-9H-pyrido[2,3-b]pyrrolo[1,2-d][1,4]oxazin-9-one]	0.45 nM	> 10 µM	
Cc1ccc(NS(C)(=O)=O)cc1Nc1ncc(Cl)c(-c2cccc(-c3ccccc3)c2)n1 [Compound 7, N-(3-((4-([1,1′-biphenyl]-3-yl)-5-chloropyrimidin-2-yl)amino)-4-methylphenyl)methanesulfonamide]	150 nM		
Cc1cc(NS(C)(=O)=O)ccc1Nc1ncc(Cl)c(-c2cccc(-c3ccccc3)c2)n1 [Compound 6, N-(4-((4-([1,1′-biphenyl]-3-yl)-5-chloropyrimidin-2-yl)amino)-3-methylphenyl)methanesulfonamide]	43 nM		
Cc1cc(C(N)=O)ccc1Nc1ncc(Cl)c(-c2cccc(-c3ccccc3)c2)n1 [Compound 5, 4-((4-([1,1′-biphenyl]-3-yl)-5-chloropyrimidin-2-yl)amino)-3-methylbenzamide]	46 nM		
CC(=O)Nc1cncc(Nc2ncc(Cl)c(-c3cccc(-c4ccccc4)c3)n2)c1 [Compound 11, N-(5-((4-([1,1′-biphenyl]-3-yl)-5-chloropyrimidin-2-yl)amino)pyridin-3-yl)acetamide]	7.2 nM	> 10 µM	
O=C(Nc1cncc(Nc2ncc(Cl)c(-c3cccc(-c4ccccc4)c3)n2)c1)c1ccccc1 [Compound 13, N-(5-((4-([1,1′-biphenyl]-3-yl)-5-chloropyrimidin-2-yl)amino)pyridin-3-yl)benzamide]	21 nM	> 10 µM	
Cc1ccc(C(N)=O)cc1Nc1ncc(Cl)c(-c2cccc(-c3ccccc3)c2)n1 [Compound 10, 3-((4-([1,1′-biphenyl]-3-yl)-5-chloropyrimidin-2-yl)amino)-4-methylbenzamide]	65 nM		

Results, then the compound that gave them:

Kd [1]	Kd [2]	IC50 [3]	Compound
29 nM	> 10 µM	8.76 µM	CC(=O)N(C)S(=O)(=O)c1ccc(Nc2ncc(Cl)c(-c3cccc(-c4ccccc4)c3)n2)c(C)c1 [Compound 3, N-((4-((4-([1,1′-biphenyl]-3-yl)-5-chloropyrimidin-2-yl)amino)-3-methylphenyl)sulfonyl)-N-methylacetamide]
110 nM			CC(=O)N[C@H](C(=O)N1C[C@H](O)C[C@H]1C(=O)N[C@@H](C)c1ccc(-c2scnc2C)cc1OCCCCCNC(=O)CCC(=O)Nc1cncc(Nc2ncc(Cl)c(-c3cccc(-c4ccccc4)c3)n2)c1)C(C)(C)C [Compound 53, N1-(5-((4-([1,1′-biphenyl]-3-yl)-5-chloropyrimidin-2-yl)amino)pyridin-3-yl)-N4-(5-(2-((S)-1-((2S,4R)-1-((S)-2-acetamido-3,3-dimethylbutanoyl)-4-hydroxypyrrolidine-2-carboxamido)ethyl)-5-(4-methylthiazol-5-yl)phenoxy)pentyl)succinimide]
140 nM	> 10 µM		O=C(Nc1cccc(Nc2ncc(Cl)c(-c3cccc(-c4ccccc4)c3)n2)c1)c1ccccc1 [Compound 12, N-(3-((4-([1,1′-biphenyl]-3-yl)-5-chloropyrimidin-2-yl)amino)phenyl)benzamide]
460 nM			O=C(COc1cccc2c1C(=O)N(C1CCC(=O)NC1=O)C2=O)NCCOCCOCCNS(=O)(=O)c1ccc(Nc2ncc(Cl)c(-c3cccc(-c4ccccc4)c3)n2)cc1 (centres unmarked) [Compound 36, N-(2-(2-(2-((4-((4-([1,1′-biphenyl]-3-yl)-5-chloro-1|4-pyrimidin-2-yl)amino)phenyl)sulfonamido)ethoxy)ethoxy)ethyl)-2-((2-(2,6-dioxopiperidin-3-yl)-1,3-dioxoisoindolin-4-yl)oxy)acetamide]
38 nM	> 10 µM		O=C(Nc1cncc(Nc2ncc(Cl)c(-c3cccc(-c4cccnc4)c3)n2)c1)c1ccccc1 [Compound 14]
620 nM	> 10 µM		Cc1ncsc1-c1ccc(CNC(=O)[C@@H]2C[C@@H](O)CN2C(=O)[C@@H](NC(=O)C2(F)CC2)C(C)(C)C)c(OCCCCCCC(=O)N2CCC3(CC2)CCN(c2cncc(Nc4ncc(Cl)c(-c5cccc(-c6ccccc6)c5)n4)c2)C3=O)c1 [Compound 56, (2S,4R)—N-(2-((7-(2-(5-((4-([1,1′-biphenyl]-3-yl)-5-chloropyrimidin-2-yl)amino)pyridin-3-yl)-1-oxo-2,8-diazaspiro[4,5]decan-8-yl)-7-oxoheptyl)oxy)-4-(4-methylthiazol-5-yl)benzyl)-1-((S)-2(1-fluorocyclopropane-1-carboxamido)-3,3-dimethylbutanoyl)-4-hydroxypyrrolidine-2-carboxamide]
42 nM	> 10 µM		Cc1ncsc1-c1ccc([C@H](C)NC(=O)[C@@H]2C[C@@H](O)CN2C(=O)[C@@H](NC(=O)CCCCCC(=O)N2CCC3(CC2)CCN(c2cncc(Nc4ncc(Cl)c(-c5cccc(-c6ccccc6)c5)n4)c2)C3=O)C(C)(C)C)cc1 [Compound 57]
1400 nM	> 10 µM		CC(=O)Nc1ccc(C)c(Nc2ncc(Cl)c(-c3cccc(-c4ccccc4)c3)n2)c1 [Compound 9, N-(3-((4-([1,1′-biphenyl]-3-yl)-5-chloropyrimidin-2-yl)amino)-4-methylphenyl)acetamide]
64 nM	> 10 µM	> 10 µM	NS(=O)(=O)c1ccc(Nc2ncc(Cl)c(-c3cccc(-c4ccccc4)c3)n2)cc1 [Compound 4]
56 nM	> 10 µM	> 10 µM	CC(=O)N(CC#N)S(=O)(=O)c1ccc(Nc2ncc(Cl)c(-c3cccc(-c4ccccc4)c3)n2)c(C)c1 [Compound 2]
36 nM	> 10 µM	> 10 µM	Cc1cc(S(N)(=O)=O)ccc1Nc1ncc(Cl)c(-c2cccc(-c3ccccc3)c2)n1 [Compound 1]
